Patent US20240425523A1, “Compounds for the Degradation of EGFR Kinase” (Beigene Switzerland GMBH, priority 2023, published 2024)

Legend:
Type in all cases: cell-based
[1] = biological target: T1, p-EGFR L858R (BaF3-L858R cells) (Homo sapiens, UniProt P00533, L858R); assay: Cell p-EGFR inhibition assay, HTRF, BaF3-L858R cells; conditions: 16 h treatment; for Imax (%): maximum percentage of pEGFR inhibition; for IC50: pEGFR inhibition
T1 construct: host or cells: BaF3
Outline: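 BaF3-L858R cells treated 16 h at 37 °C, 5% CO2 with compound from 10 uM top, 5-fold dilutions, 8 doses, in 0.1% DMSO medium. Lysates read overnight by HTRF p-EGFR antibodies; IC50 fitted to four-parameter curve against DMSO high control.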

[2] = biological target: T2, EGFR-L858R/C797S (H1975-clone #8 cells) (Homo sapiens, UniProt P00533, C797S/L858R); assay: Cell degradation of EGFR, HTRF assay, H1975-clone#8 (L858R/C797S) cells; conditions: 16 h treatment; for DC50: EGFR degradation; for Dmax: maximum percentage of degradation
T2 construct: expressed in transfected cells; host or cells: H1975 (endogenous EGFR knocked out, clone #8)

[3] = biological target: p-EGFR Del19/C797S (H1975-clone #23 cells) (Homo sapiens, UniProt P00533); assay: Cell p-EGFR inhibition assay, HTRF, H1975-clone#23 (DEL19/C797S) cells; conditions: 16 h treatment; for Imax (%): maximum percentage of pEGFR inhibition; for IC50: pEGFR inhibition
Outline: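 Phospho-EGFR read by overnight HTRF on lysates, normalized to DMSO-treated high control; IC50, Hill slope and Imax fitted. Compounds were applied for 16 h (10 uM top, 5-fold steps, 8 doses) to an H1975 single clone carrying only exogenous Del19/C797S EGFR after sgRNA knockout of endogenous copies.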

[4] = biological target: T3, EGFR L858R (BaF3-L858R cells) (Homo sapiens, UniProt P00533, L858R); assay: Cell degradation of EGFR, HTRF assay, BaF3-L858R cells; conditions: 16 h treatment; for DC50: EGFR degradation; for Dmax: maximum percentage of degradation
T3 construct: host or cells: BaF3
Outline: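 EGFR L858R levels measured by HTRF antibody pair in lysed BaF3-L858R cells after 16 h compound exposure (8-point 5-fold series from 10 uM final, 37° C). Degradation is relative to DMSO-only cells; DC50 fitted with Hill equation, Dmax taken as the largest percent loss.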

Row | SMILES | Imax (%) [1] | IC50 [1] | DC50 [2] | Dmax [2] | Imax (%) [3] | IC50 [3] | DC50 [4] | Dmax [4]
1 | Cc1cc2cc(n1)-c1cnn(C)c1OC[C@H]1CCC(C1)CN1/C(=N/C2=O)Nc2ccc(N3CCN(C4CCN(c5ccc(OC6CCC(=O)NC6=O)cc5F)CC4)CC3)cc21 (some centres unmarked) [Example 88, 3-(4-(4-(4-((7^1R,7^3S,E)-1^1,2^6-dimethyl-3-oxo-5^2,5^3-dihydro-1^1H,5^1H-9-oxa-4-aza-5(2,1)-benzo[d]imidazola-2(2,4)-pyridina-1(4,5)-pyrazola-7(1,3)-cyclopentanacyclononaphane-5^6-yl)piperazin-1-yl)piperidin-1-yl)-3-fluorophenoxy)piperidine-2,6-dione] | 108.3% | 6.1 nM | 1.63 nM | 82.9% | 100.7% | 3 nM | 16.4 nM | 95.8%
2 | COC[C@@H]1CN(c2ccc3c(c2)N2C[C@@H]4CC[C@H](COc5c(c(C)nn5C)-c5cc(cc(C)n5)C(=O)/N=C/2N3)C4)CCN1C1CCN(c2cc(F)c(C3CCC(=O)NC3=O)nc2C)CC1 (stereo partly drawn) [Example 89, 3-(3-fluoro-5-(4-((S)-2-(methoxymethyl)-4-((7^1R,7^3S,E)-1^1,1^3,2^6-trimethyl-3-oxo-5^2,5^3-dihydro-1^1H,5^1H-9-oxa-4-aza-5(2,1)-benzo[d]imidazola-2(2,4)-pyridina-1(4,5)-pyrazola-7(1,3)-cyclopentanacyclononaphane-5^6-yl)piperazin-1-yl)piperidin-1-yl)-6-methylpyridin-2-yl)piperidine-2,6-dione] | 99.7% | 8 nM | 1.64 nM | 87.5% | 101.2% | 1.9 nM | 1.75 nM | 73.9%
3 | COC[C@H]1CN(c2ccc3c(c2)N2CC4CC[C@H](COc5c(c(C)nn5C)-c5cc(cc(C)n5)C(=O)/N=C/2N3)C4)CCN1C1CCN(c2cc(F)c(C3CCC(=O)NC3=O)nc2C)CC1 (stereo partly drawn) [Example 90, 3-(3-fluoro-5-(4-((R)-2-(methoxymethyl)-4-((7^1R,7^3S,E)-1^1,1^3,2^6-trimethyl-3-oxo-5^2,5^3-dihydro-1^1H,5^1H-9-oxa-4-aza-5(2,1)-benzo[d]imidazola-2(2,4)-pyridina-1(4,5)-pyrazola-7(1,3)-cyclopentanacyclononaphane-5^6-yl)piperazin-1-yl)piperidin-1-yl)-6-methylpyridin-2-yl)piperidine-2,6-dione] | 98.4% | 6.3 nM | 2.06 nM | 87.4% | 101.7% | 2.5 nM | 3.21 nM | 80.6%
4 | COC[C@H]1CN(c2ccc3c(c2)N2CC4CC[C@H](COc5c(c(C)nn5C)-c5cc(cc(C)n5)C(=O)/N=C/2N3)C4)CCN1C1CCN(c2cc(F)c([C@H]3CCC(=O)NC3=O)c(F)c2)CC1 [Example 91, (R)-3-(2,6-difluoro-4-(4-((R)-2-(methoxymethyl)-4-((7R,7^3S,E)-1^1,1^3,2^6-trimethyl-3-oxo-5^2,5^3-dihydro-1^1H,5^1H-9-oxa-4-aza-5(2,1)-benzo[d]imidazola-2(2,4)-pyridina-1(4,5)-pyrazola-7(1,3)-cyclopentanacyclononaphane-5^6-yl)piperazin-1-yl)piperidin-1-yl)phenyl)piperidine-2,6-dione] | 97.1% | 3.5 nM | 2.28 nM | 88.7% | 100.8% | 2.2 nM | 2.04 nM | 81.5%
5 | Cc1cc2cc(n1)-c1cnn(C)c1OC[C@H]1CCC(C1)CN1/C(=N/C2=O)Nc2ccc(N3CCN(C4CCN(c5c(F)cc(NC6CCC(=O)NC6=O)cc5F)CC4)CC3)cc21 (some centres unmarked) [Example 92, 3-((4-(4-(4-((7^1R,7^3S,E)-1^1,2^6-dimethyl-3-oxo-5^2,5^3-dihydro-1^1H,5^1H-9-oxa-4-aza-5(2,1)-benzo[d]imidazola-2(2,4)-pyridina-1(4,5)-pyrazola-7(1,3)-cyclopentanacyclononaphane-5^6-yl)piperazin-1-yl)piperidin-1-yl)-3,5-difluorophenyl)amino)piperidine-2,6-dione] | 97.2% | 10 nM | 3.12 nM | 79.8% | 100.1% | 1 nM | 1.97 nM | 85.8%
6 | COC[C@@H]1CN(c2ccc3c(c2)N2CC4CC[C@H](COc5c(cnn5C)-c5cc(cc(C)n5)C(=O)/N=C/2N3)C4)CCN1C1CCN(c2c(F)cc(NC3CCC(=O)NC3=O)cc2F)CC1 (stereo partly drawn) [Example 93, 3-((4-(4-((S)-4-((7^1R,7^3S,E)-1^1,2^6-dimethyl-3-oxo-5^2,5^3-dihydro-1^1H,5^1H-9-oxa-4-aza-5(2,1)-benzo[d]imidazola-2(2,4)-pyridina-1(4,5)-pyrazola-7(1,3)-cyclopentanacyclononaphane-5^6-yl)-2-(methoxymethyl)piperazin-1-yl)piperidin-1-yl)-3,5-difluorophenyl)amino)piperidine-2,6-dione] | 96.9% | 19.6 nM | 7.66 nM | 83.8% | 100.3% | 2 nM | 9.09 nM | 77.4%
7 | Cc1cc2cc(n1)-c1cnn(C)c1OC[C@H]1CCC(C1)CN1/C(=N/C2=O)Nc2ccc(N3CCN(C4CCN(c5cc(F)c([C@H]6CCC(=O)NC6=O)c(F)c5)CC4)C[C@@H]3CO)cc21 [Example 94, (R)-3-(4-(4-((R)-4-((7^1R,7^3S,E)-1^1,2^6-dimethyl-3-oxo-5^2,5^3-dihydro-1^1H,5^1H-9-oxa-4-aza-5(2,1)-benzo[d]imidazola-2(2,4)-pyridina-1(4,5)-pyrazola-7(1,3)-cyclopentanacyclononaphane-5^6-yl)-3-(hydroxymethyl)piperazin-1-yl)piperidin-1-yl)-2,6-difluorophenyl)piperidine-2,6-dione] | 99.6% | 6.1 nM | 0.83 nM | 73.9% | 101.2% | 0.8 nM | 3.37 nM | 71.6%
8 | COC[C@H]1CN(c2ccc3c(c2)N2CC4CC[C@H](COc5c(c(C(F)(F)F)nn5C)-c5cc(cc(C)n5)C(=O)/N=C/2N3)C4)CCN1C1CCN(c2cc(F)c([C@H]3CCC(=O)NC3=O)c(F)c2)CC1 [Example 95, (R)-3-(4-(4-((R)-4-((7^1R,7^3S,E)-1^1,2^6-dimethyl-3-oxo-1^3-(trifluoromethyl)-5^2,5^3-dihydro-1^1H,5^1H-9-oxa-4-aza-5(2,1)-benzo[d]imidazola-2(2,4)-pyridina-1(4,5)-pyrazola-7(1,3)-cyclopentanacyclononaphane-5^6-yl)-2-(methoxymethyl)piperazin-1-yl)piperidin-1-yl)-2,6-difluorophenyl)piperidine-2,6-dione] | 99.3% | 10.8 nM | 12.1 nM | 79% | 101% | 4.5 nM | 8.5 nM | 86.5%
9 | COC[C@@H]1CN(c2cc3c(cc2C)N/C2=N\C(=O)c4cc(C)nc(c4)-c4cnn(C)c4OC[C@H]4CC[C@H](C4)CN23)CCN1C1CCN(c2cc(F)c([C@H]3CCC(=O)NC3=O)c(F)c2)CC1 [Example 96, (R)-3-(2,6-difluoro-4-(4-((S)-2-(methoxymethyl)-4-((7R,7^3S,E)-1^1,2^6,5^5-trimethyl-3-oxo-5^2,5^3-dihydro-1^1H,5^1H-9-oxa-4-aza-5(2,1)-benzo[d]imidazola-2(2,4)-pyridina-1(4,5)-pyrazola-7(1,3)-cyclopentanacyclononaphane-5^6-yl)piperazin-1-yl)piperidin-1-yl)phenyl)piperidine-2,6-dione] | 100.3% | 6.3 nM | 3.15 nM | 82.7% | 100.9% | 0.8 nM | 3.41 nM | 86.6%
10 | Cc1cc2cc(n1)-c1cnn(C)c1OC[C@H]1CCC(C1)CN1/C(=N/C2=O)Nc2ccc(N3CCN(C4CCN(c5ccc(NC6CCC(=O)NC6=O)nc5C)CC4)CC3)cc21 (some centres unmarked) [Example 98, 3-((5-(4-(4-((7^1R,7^3S,E)-1^1,2^6-dimethyl-3-oxo-5^2,5^3-dihydro-1^1H,5^1H-9-oxa-4-aza-5(2,1)-benzo[d]imidazola-2(2,4)-pyridina-1(4,5)-pyrazola-7(1,3)-cyclopentanacyclononaphane-5^6-yl)piperazin-1-yl)piperidin-1-yl)-6-methylpyridin-2-yl)amino)piperidine-2,6-dione] | 110.3% | 4.7 nM | 2.49 nM | 75% | 101.3% | 1.4 nM | 2.6 nM | 80.6%
